# Source: ChEMBL document CHEMBL4177767, “Discovery of N2-(4-Amino-cyclohexyl)-9-cyclopentyl- N6-(4-morpholin-4-ylmethyl-phenyl)- 9H-purine-2,6-diamine as a Potent FLT3 Kinase Inhibitor for Acute Myeloid Leukemia with FLT3 Mutations” (J Med Chem, 2018)
# Activity calls are given as the source filed them. The rule behind the calls is not given here.
# Assays:
# [1] = test system: MV4-11; assay: Cell cycle arrest in human MV4-11 cells assessed as accumulation at sub-G1 phase at 0.1 nM after 24 hrs by propidium iodide staining-based flow cytometric method (reference value: 9.2%); type: functional
# [2] = test system: MV4-11; assay: Cell cycle arrest in human MV4-11 cells assessed as accumulation at S phase at 100 nM after 24 hrs by propidium iodide staining-based flow cytometric method (reference value: 28.1%); type: functional
# [3] = target: Receptor-type tyrosine-protein kinase FLT3 (Homo sapiens) (UniProt P36888); assay: Inhibition of human N-terminal GST-tagged FLT3 cytoplasmic domain expressed in baculovirus expression system at 10 nM
# [4] = test system: THP-1; assay: cells; conditions: Homo sapiens, THP-1, 72 h
# [5] = test system: Receptor-type tyrosine-protein kinase FLT3 (Homo sapiens), P36888 [UNDEFINED MUTATION]; conditions: MV4-11, at 0.01 to 100 nM
# Description: Inhibition of FLT3 ITD mutant in human MV4-11 cells assessed as decrease in MEK1/2 phosphorylation at S217/221 at 0.01 to 100 nM after 1 hr by immunoblot analysis
# [6] = test system: MV4-11; assay: Cell cycle arrest in human MV4-11 cells assessed as accumulation at S phase at 0.1 nM after 24 hrs by propidium iodide staining-based flow cytometric method (reference value: 28.1%); type: functional
# [7] = test system: Receptor-type tyrosine-protein kinase FLT3 (Homo sapiens), P36888 [UNDEFINED MUTATION]; conditions: MV4-11, at 1 nM
# Description: Inhibition of FLT3 ITD mutant autophosphorylation at Y842 in human MV4-11 cells at 1 nM after 1 hr by immunoblot analysis
# [8] = target: T1, Receptor-type tyrosine-protein kinase FLT3 (Homo sapiens, UniProt P36888); assay: biochemical; type: cell-based, Sf9
# T1 sequence (P36888 whole entry): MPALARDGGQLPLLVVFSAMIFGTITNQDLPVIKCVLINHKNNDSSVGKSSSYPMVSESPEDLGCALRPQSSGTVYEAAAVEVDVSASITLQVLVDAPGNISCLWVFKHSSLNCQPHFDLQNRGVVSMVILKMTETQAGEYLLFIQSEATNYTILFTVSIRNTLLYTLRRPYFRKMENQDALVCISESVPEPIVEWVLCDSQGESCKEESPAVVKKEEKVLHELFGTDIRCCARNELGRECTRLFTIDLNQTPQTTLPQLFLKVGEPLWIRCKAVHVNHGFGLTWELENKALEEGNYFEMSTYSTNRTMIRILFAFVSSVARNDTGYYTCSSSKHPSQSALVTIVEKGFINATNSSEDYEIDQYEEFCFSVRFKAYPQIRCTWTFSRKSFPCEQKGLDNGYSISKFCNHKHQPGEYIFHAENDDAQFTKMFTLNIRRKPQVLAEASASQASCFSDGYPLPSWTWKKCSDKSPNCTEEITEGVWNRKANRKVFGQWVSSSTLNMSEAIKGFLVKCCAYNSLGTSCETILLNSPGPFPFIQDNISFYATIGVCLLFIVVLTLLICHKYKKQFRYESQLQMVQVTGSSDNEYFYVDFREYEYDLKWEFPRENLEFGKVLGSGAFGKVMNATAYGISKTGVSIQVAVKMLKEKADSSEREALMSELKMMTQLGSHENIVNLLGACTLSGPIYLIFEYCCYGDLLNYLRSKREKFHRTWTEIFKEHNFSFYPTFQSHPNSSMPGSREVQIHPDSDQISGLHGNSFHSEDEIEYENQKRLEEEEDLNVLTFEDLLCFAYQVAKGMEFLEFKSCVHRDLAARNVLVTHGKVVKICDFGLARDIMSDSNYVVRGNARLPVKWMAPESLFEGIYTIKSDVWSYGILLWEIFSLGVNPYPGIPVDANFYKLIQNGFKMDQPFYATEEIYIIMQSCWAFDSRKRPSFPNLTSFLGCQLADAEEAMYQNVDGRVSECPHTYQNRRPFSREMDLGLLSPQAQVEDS
# Description: Inhibition of N-terminal GST/His6-fused recombinant wild type human FLT3 (R571 to S993 residues) expressed in Sf9 insect cells using poly (Ala,Glu,Lys,Tyr) 6:2:5:1 hydrobromide as substrate in presence of [gamma-33P]ATP
# [9] = in vitro; conditions: mouse, BA/F3 cells
# [10] = test system: MV4-11; assay: Cell cycle arrest in human MV4-11 cells assessed as accumulation at G2/M phase at 0.1 nM after 24 hrs by propidium iodide staining-based flow cytometric method (reference value: 15.9%); type: functional
# [11] = test system: Receptor-type tyrosine-protein kinase FLT3 (Homo sapiens), P36888 [UNDEFINED MUTATION]; conditions: MV4-11, at 1 nM; remark: listed apart in the source
# Description: Inhibition of FLT3 ITD mutant autophosphorylation at Y589/591 in human MV4-11 cells at 1 nM after 1 hr by immunoblot analysis
# [12] = target: Serine/threonine-protein kinase SIK1 (Homo sapiens) (UniProt P57059); conditions: 10 nM
# Description: Inhibition of full length human N-terminal GST-tagged SIK expressed in baculovirus expression system at 10 nM relative to control
# [13] = test system: MV4-11; assay: Cell cycle arrest in human MV4-11 cells assessed as accumulation at sub-G1 phase at 100 nM after 24 hrs by propidium iodide staining-based flow cytometric method (reference value: 9.2%); type: functional
# [14] = target: Receptor-type tyrosine-protein kinase FLT3 (Homo sapiens, UniProt P36888, ITD); assay: biochemical; type: cell-based, Sf9
# Description: Inhibition of N-terminal GST/His6-fused recombinant human FLT3 (R571 to S993 residues) ITD mutant expressed in Sf9 insect cells using poly (Ala,Glu,Lys,Tyr) 6:2:5:1 hydrobromide as substrate in presence of [gamma-33P]ATP
# [15] = in vitro; conditions: human, HUVEC
# [16] = test system: MOLM-13; assay: cells; conditions: Homo sapiens, MOLM-13, 72 h
# [17] = target: Serine/threonine-protein kinase SIK2 (Homo sapiens) (UniProt Q9H0K1); conditions: 10 nM
# Description: Inhibition of full length human N-terminal GST-tagged QIK expressed in baculovirus expression system at 10 nM relative to control
# [18] = in vitro; conditions: human, MRC5 cells
# [19] = test system: MV4-11; assay: Cell cycle arrest in human MV4-11 cells assessed as accumulation at G2/M phase at 0.01 nM after 24 hrs by propidium iodide staining-based flow cytometric method (reference value: 15.9%); type: functional
# [20] = test system: MV4-11; assay: Cell cycle arrest in human MV4-11 cells assessed as accumulation at G1 phase at 10 nM after 24 hrs by propidium iodide staining-based flow cytometric method (reference value: 56%); type: functional
# [21] = test system: MV4-11; assay: Cell cycle arrest in human MV4-11 cells assessed as accumulation at G2/M phase at 1 nM after 24 hrs by propidium iodide staining-based flow cytometric method (reference value: 15.9%); type: functional
# [22] = target: Activated CDC42 kinase 1 (Homo sapiens) (UniProt Q07912); conditions: 10 nM
# Description: Inhibition of human N-terminal GST-tagged ACK catalytic domain expressed in baculovirus expression system at 10 nM relative to control
# [23] = test system: MV4-11; assay: Cell cycle arrest in human MV4-11 cells assessed as accumulation at G1 phase at 100 nM after 24 hrs by propidium iodide staining-based flow cytometric method (reference value: 56%); type: functional
# [24] = test system: Kasumi 1; assay: cells; conditions: Homo sapiens, Kasumi 1, 72 h
# [25] = test system: Mus musculus; assay: In vivo inhibition of FLT3 ITD mutant in human MV4-11 cells xenografted in athymic nu/nu mouse assessed as decrease in STAT5 phosphorylation at Y694 at 10 mg/kg, ip after 24 hrs by immunoblot method relative to control; type: functional; conditions: MV4-11, ip
# [26] = target: Proto-oncogene tyrosine-protein kinase Src (Homo sapiens) (UniProt P12931); conditions: 10 nM
# Description: Inhibition of full length human N-terminal GST-tagged SRC expressed in baculovirus expression system at 10 nM relative to control
# [27] = test system: Receptor-type tyrosine-protein kinase FLT3 (Homo sapiens), P36888 [UNDEFINED MUTATION]; conditions: MV4-11, at 0.01 to 100 nM; remark: listed apart in the source
# Description: Inhibition of FLT3 ITD mutant in human MV4-11 cells assessed as decrease in STAT5 phosphorylation at Y694 at 0.01 to 100 nM after 1 hr by immunoblot analysis
# Chain of Activated CDC42 kinase 1 (Homo sapiens) (Q07912 whole entry, looked up): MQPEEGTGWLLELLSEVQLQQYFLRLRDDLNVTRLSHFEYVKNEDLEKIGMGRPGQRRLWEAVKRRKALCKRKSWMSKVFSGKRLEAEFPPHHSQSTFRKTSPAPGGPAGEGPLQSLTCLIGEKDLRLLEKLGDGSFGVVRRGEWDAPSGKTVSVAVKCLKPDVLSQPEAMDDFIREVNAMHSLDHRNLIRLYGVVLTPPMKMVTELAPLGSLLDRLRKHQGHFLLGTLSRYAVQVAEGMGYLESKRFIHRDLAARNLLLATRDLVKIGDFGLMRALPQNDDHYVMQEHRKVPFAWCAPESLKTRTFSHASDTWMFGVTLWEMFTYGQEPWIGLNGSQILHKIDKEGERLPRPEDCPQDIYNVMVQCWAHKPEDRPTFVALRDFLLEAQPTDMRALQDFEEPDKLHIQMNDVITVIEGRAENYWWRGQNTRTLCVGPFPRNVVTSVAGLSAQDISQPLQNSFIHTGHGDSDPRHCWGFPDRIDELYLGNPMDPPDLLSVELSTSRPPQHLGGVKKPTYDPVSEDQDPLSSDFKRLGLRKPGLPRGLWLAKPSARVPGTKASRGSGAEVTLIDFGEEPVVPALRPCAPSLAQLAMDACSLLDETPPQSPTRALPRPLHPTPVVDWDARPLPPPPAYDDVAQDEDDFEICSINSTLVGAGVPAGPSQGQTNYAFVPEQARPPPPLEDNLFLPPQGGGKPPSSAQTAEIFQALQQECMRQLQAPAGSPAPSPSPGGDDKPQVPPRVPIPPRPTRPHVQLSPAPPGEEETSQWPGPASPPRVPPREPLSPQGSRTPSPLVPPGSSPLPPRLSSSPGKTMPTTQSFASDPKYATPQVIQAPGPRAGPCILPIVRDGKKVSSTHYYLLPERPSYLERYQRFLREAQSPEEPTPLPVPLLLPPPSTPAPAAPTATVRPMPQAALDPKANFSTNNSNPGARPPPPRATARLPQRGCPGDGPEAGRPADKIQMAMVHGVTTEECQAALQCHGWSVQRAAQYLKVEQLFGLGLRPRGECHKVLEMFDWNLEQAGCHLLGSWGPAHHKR
# Chain of Proto-oncogene tyrosine-protein kinase Src (Homo sapiens) (P12931 2-536 limits assumed): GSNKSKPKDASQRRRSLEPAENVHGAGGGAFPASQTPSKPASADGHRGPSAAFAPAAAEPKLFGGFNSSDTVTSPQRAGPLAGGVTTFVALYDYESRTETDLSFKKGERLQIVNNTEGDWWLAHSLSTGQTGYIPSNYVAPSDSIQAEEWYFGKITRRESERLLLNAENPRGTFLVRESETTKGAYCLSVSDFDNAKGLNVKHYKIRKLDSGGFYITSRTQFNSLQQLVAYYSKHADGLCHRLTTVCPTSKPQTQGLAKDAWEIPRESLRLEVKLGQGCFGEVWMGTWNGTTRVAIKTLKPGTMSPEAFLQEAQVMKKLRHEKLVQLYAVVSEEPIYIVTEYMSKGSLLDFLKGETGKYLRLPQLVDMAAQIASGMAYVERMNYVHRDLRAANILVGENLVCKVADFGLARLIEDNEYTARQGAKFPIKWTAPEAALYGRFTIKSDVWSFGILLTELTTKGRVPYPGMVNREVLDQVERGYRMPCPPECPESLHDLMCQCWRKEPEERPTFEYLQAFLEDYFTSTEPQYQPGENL
# Chain of Serine/threonine-protein kinase SIK2 (Homo sapiens) (Q9H0K1 whole entry, looked up): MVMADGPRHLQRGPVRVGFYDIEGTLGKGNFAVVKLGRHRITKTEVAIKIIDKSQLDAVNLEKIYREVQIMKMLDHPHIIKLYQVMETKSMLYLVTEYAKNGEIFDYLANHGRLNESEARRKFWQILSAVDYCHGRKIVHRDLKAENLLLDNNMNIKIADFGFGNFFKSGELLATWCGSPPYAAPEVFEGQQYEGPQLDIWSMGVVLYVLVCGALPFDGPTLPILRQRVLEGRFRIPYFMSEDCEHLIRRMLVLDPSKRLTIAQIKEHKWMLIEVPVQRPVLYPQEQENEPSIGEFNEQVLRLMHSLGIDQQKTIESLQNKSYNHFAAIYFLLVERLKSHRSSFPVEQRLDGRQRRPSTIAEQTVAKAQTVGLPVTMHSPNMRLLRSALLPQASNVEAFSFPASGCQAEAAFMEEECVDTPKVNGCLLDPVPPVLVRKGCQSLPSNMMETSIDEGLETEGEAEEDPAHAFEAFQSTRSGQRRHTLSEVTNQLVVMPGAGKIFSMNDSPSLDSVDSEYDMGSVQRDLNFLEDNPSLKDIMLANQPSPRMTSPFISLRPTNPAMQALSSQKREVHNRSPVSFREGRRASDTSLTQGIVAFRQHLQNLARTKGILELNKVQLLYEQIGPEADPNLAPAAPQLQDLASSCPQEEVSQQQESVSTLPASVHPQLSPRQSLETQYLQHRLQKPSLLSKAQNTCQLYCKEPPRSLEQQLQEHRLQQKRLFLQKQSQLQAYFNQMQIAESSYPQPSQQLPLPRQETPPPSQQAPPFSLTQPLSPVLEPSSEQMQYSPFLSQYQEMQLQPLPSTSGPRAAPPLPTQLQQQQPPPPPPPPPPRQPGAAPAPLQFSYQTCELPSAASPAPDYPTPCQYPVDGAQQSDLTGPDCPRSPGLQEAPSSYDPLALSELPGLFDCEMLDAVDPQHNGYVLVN
# Chain of Serine/threonine-protein kinase SIK1 (Homo sapiens) (P57059 whole entry): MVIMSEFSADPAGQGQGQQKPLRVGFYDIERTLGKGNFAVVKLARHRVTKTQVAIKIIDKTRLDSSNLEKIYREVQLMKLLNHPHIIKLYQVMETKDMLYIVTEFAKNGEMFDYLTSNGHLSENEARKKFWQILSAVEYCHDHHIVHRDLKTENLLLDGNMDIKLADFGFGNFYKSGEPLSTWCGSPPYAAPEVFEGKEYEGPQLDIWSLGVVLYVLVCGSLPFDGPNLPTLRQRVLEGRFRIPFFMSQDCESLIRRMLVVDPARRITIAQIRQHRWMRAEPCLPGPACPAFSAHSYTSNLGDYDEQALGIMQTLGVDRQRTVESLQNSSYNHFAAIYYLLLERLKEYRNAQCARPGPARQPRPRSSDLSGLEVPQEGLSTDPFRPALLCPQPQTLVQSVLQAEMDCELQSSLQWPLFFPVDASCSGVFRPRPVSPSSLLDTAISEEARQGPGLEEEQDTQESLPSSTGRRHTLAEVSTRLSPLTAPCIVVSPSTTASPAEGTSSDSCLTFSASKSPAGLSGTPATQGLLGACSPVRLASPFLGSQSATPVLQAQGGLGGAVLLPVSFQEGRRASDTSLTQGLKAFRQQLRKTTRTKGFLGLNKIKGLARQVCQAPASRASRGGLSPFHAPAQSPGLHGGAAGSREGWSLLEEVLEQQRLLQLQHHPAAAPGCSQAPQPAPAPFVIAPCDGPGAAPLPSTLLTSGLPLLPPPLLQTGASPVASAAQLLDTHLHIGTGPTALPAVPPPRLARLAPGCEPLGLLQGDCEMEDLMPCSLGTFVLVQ
smiles,measurement,setting,value
N[C@H]1CC[C@H](Nc2nc(Nc3ccc(CN4CCOCC4)cc3)c3ncn(C4CCCC4)c3n2)CC1,Activity,[1],11.8%
same,Activity,[2],3.8%
same,inhibition,[3],Active
same,GI50,[4],713 nM
same,inhibition,[5],Active
same,Activity,[6],28%
same,inhibition,[7],Active
same,IC50,[8],13 nM
same,GI50 at 72 h,[9],1140 nM
same,Activity,[10],12.3%
same,inhibition,[11],Active
same,inhibition,[12],> 90%
same,Activity,[13],45.9%
same,IC50,[14],3 nM
same,GI50 at 72 h,[15],5.87 µM
same,GI50,[16],1 nM
same,inhibition,[17],> 90%
same,GI50 at 72 h,[18],20.6 µM
same,Activity,[19],14.5%
same,Activity,[20],96.5%
same,Activity,[21],1.1%
same,inhibition,[22],> 90%
same,Activity,[23],95%
same,GI50,[24],513 nM
same,inhibition in vivo at 10 mg/kg,[25],95%
same,inhibition,[26],> 90%
same,inhibition,[27],Active
